In PubChem BioAssay (NCI):
Values joined by “and” are separate entries in the source; they are usually repeats but may differ in a detail not shown here. Equal entries are not always repeated.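 These data come from cells grown in 96-well plates and exposed to compound for 48 hours at five concentrations. At the GI50, growth is halved. TGI marks complete inhibition of growth.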

Assays:
Experiment in all cases: NCI-60 cell line screen, 48 h
HS 578T breast = tested on: HS 578T breast
IGROV1 ovarian = tested on: IGROV1 ovarian
LOX IMVI melanoma = tested on: LOX IMVI melanoma
MALME-3M melanoma = tested on: MALME-3M melanoma
NCI-H460 lung = tested on: NCI-H460 lung
NCI-H522 lung = tested on: NCI-H522 lung
OVCAR-5 ovarian = tested on: OVCAR-5 ovarian
SF-268 CNS = tested on: SF-268 CNS
SK-MEL-5 melanoma = tested on: SK-MEL-5 melanoma
SNB-75 CNS = tested on: SNB-75 CNS

Structure (SMILES) | TGI (HS 578T breast) | TGI (IGROV1 ovarian) | TGI (LOX IMVI melanoma) | TGI (MALME-3M melanoma) | TGI (NCI-H460 lung) | TGI (NCI-H522 lung) | TGI (OVCAR-5 ovarian) | TGI (SF-268 CNS) | TGI (SK-MEL-5 melanoma) | TGI (SNB-75 CNS) | GI50 (IGROV1 ovarian) | GI50 (LOX IMVI melanoma) | GI50 (MALME-3M melanoma) | GI50 (NCI-H460 lung) | GI50 (NCI-H522 lung) | GI50 (OVCAR-5 ovarian) | GI50 (SF-268 CNS) | GI50 (SK-MEL-5 melanoma) | GI50 (SNB-75 CNS) | GI50 (HS 578T breast)
COc1ccc2c(c1OC)C(C(Cl)(Cl)Cl)N1CCc3cc4c(cc3C1=C2)OCO4 (centres undefined) | > 100 µM | 98.2 µM | > 100 µM | 37.3 µM | 55.3 µM | 35.1 µM | > 100 µM | 91.1 µM | 15.4 µM | > 100 µM | – | – | – | – | – | – | – | – | – | –
Cc1c(N)nc(C(CC(N)=O)NCC(N)C(N)=O)nc1C(=O)NC(C(=O)NC(C)C(O)C(C)C(=O)NC(C(=O)NCCc1nc(-c2nc(C(=O)NCCCNC(C)c3ccccc3)cs2)cs1)C(C)O)C(OC1OC(CO)C(O)C(O)C1OC1OC(CO)C(O)C(OC(N)=O)C1O)c1cnc[nH]1 (centres undefined) | 0.727 µM | 50 µM and > 100 µM | 2.3 µM and 10.3 µM | 37.2 µM and > 100 µM | – | 20 µM and 44.3 µM | 47.2 µM and > 100 µM | 50 µM and 94.7 µM | 14.9 µM and 18.6 µM | 5.03 µM and 8.77 µM | 8.21 µM | 0.479 µM | 1.84 µM | 0.391 µM | 4.1 µM | 2.21 µM | 11.1 µM | 1.51 µM | 1.5 µM | –
CC([C@H]1CC=C2C3CCC4=C[C@@H](N(C)C)CC[C@]4(C)C3CC[C@@]21C)N(C)C (some centres undefined) | 13.6 µM | – | 3.69 µM | 4.47 µM | 5.48 µM | 25 µM | 19.5 µM | 4.71 µM | 2.71 µM | 10.6 µM | 4.88 µM | 1.6 µM | 1.92 µM | 2.07 µM | 7.12 µM | 6.23 µM | 1.98 µM | 1.35 µM | 3.3 µM | 3.24 µM
O=C(c1ccco1)c1c(C(F)(F)F)n([O-])c2cc(C(F)(F)F)ccc2[n+]1=O | – | 2.52 µM | 0.73 µM | 3.43 µM | 1.8 µM | 1.17 µM | 3.39 µM | 2.66 µM | 1.7 µM | 2.96 µM | 0.822 µM | 0.299 µM | 1.49 µM | 0.537 µM | 0.54 µM | 1.86 µM | 0.87 µM | 0.683 µM | 1.55 µM | 1.36 µM
Cc1[nH]c(N)nc(=S)c1CCC(=O)O | > 100 µM | > 100 µM | > 100 µM | > 100 µM | > 100 µM | > 100 µM | > 100 µM | > 100 µM | > 100 µM | – | – | – | – | – | – | – | – | – | – | –
NC(N)=NC(N)=NCCCc1ccco1 | 383 µM | > 500 µM | 121 µM | 66.2 µM | > 500 µM | > 500 µM | > 500 µM | 156 µM | > 500 µM | 245 µM | > 500 µM | 52.2 µM | 18.7 µM | 143 µM | > 500 µM | 148 µM | 61.5 µM | > 500 µM | 83.3 µM | 96 µM
CC(C)=CC(=O)N[C@H]1CC[C@]2(C)C3CC[C@]4(C)C(C(C)N(C)C)=CCC4C3CCC2[C@H]1O (some centres undefined) | 18.8 µM | 25.3 µM | 3.49 µM | 4.23 µM | 3.75 µM | 20.7 µM | 25.2 µM | 6.63 µM | 2.95 µM | 21.8 µM | 8.5 µM | 1.62 µM | 1.89 µM | 1.87 µM | 5.61 µM | 10.9 µM | 2.35 µM | 1.48 µM | 8.76 µM | 4.25 µM
C[C@H]1COCCN1c1cc(C2(S(=O)(=O)C3CC3)CC2)nc(-c2ccc(NC(=S)NCCO)cc2)n1 | 0.0643 µM | 0.119 µM | 12.3 µM | 0.0437 µM | > 100 µM | 64.8 µM | > 100 µM | > 41.3 µM | 0.147 µM | 0.0865 µM | < 0.01 µM | 0.0306 µM | < 0.01 µM | 0.02 µM | 0.0215 µM | 0.0405 µM | 0.0332 µM | 0.0151 µM | < 0.01 µM | 0.0109 µM
CCCCCC[C@@H](C)NC(=O)c1ccc(Nc2nc3ccccc3c3occc23)cc1 | > 100 µM | 4.54 µM | 42.4 µM | – | > 100 µM | 4.54 µM | > 100 µM | > 100 µM | 4.01 µM | 6.38 µM | 1.61 µM | 19.3 µM | – | 3.87 µM | 1.31 µM | 5.72 µM | 5.73 µM | 1.66 µM | 2.25 µM | 3.79 µM
C=C1C(=O)O[C@H]2[C@H]1CC/C(Cn1cc(-c3ccc(F)cc3)nn1)=C\CC[C@@]1(C)O[C@@H]21 | 22.6 µM | 2.64 µM | 2.22 µM | 2.97 µM | 14 µM | – | 3.13 µM | 3.4 µM | 3.12 µM | 2.5 µM | 1.17 µM | 0.901 µM | 1.4 µM | 3.66 µM | – | 1.48 µM | 1.69 µM | 1.74 µM | 1.25 µM | 3.68 µM
CC(C)C(=O)c1c(C(F)(F)F)n([O-])c2cc(F)c(F)cc2[n+]1=O | 2.64 µM | 53.7 µM | – | 2.21 µM | 2.81 µM | 6.22 µM | 2.58 µM | 1.05 µM | 0.609 µM | 2.75 µM | 0.161 µM | – | 0.693 µM | 0.811 µM | 1.96 µM | 1.24 µM | 0.4 µM | 0.197 µM | 1.08 µM | 0.598 µM
COC1=CC(c2ccc[nH]2)=N/C1=C\c1[nH]c(C)c(CC(=O)OCc2ccccc2)c1C | 2.26 µM | 1.34 µM | 0.753 µM | 2.1 µM | 1.72 µM | 1.86 µM | 5.38 µM | 2.56 µM | – | 0.777 µM | 0.325 µM | 0.214 µM | 0.578 µM | 0.327 µM | 0.273 µM | 1.11 µM | 0.358 µM | – | 0.217 µM | 0.362 µM
CC(=O)OC12c3ccccc3-c3ccccc3C1C(C(=O)O)C2C(=O)O (centres undefined) | > 10 µM | > 10 µM | > 10 µM | 3.09 µM | > 10 µM | > 10 µM | > 10 µM | > 10 µM | > 10 µM | – | – | – | – | – | – | – | – | – | – | –
O=c1oc2cc(OC/C(=N/O)c3ccc(F)cc3)ccc2c2ccccc12 | 63.1 µM | 42 µM | – | 42.8 µM | 35.2 µM | 37 µM | 40 µM | 42.3 µM | 36.3 µM | 43.9 µM | 23.6 µM | – | 19.6 µM | 16.9 µM | 17.5 µM | 19.4 µM | 21.1 µM | 20.9 µM | 23.7 µM | 28.8 µM
CO[C@H]1C[C@](C)(O)Cc2cc3c(c(O)c21)C(=O)c1c(O)cc2c(c1C3=O)O[C@@H]1O[C@@]2(C)[C@H](O)[C@@H](N(C)C)[C@@H]1O | 22.6 µM | 9.16 µM and 18.7 µM | 2.15 µM and 2.71 µM | 3.44 µM and 13.3 µM | 1.47 µM and 2.1 µM | 3.67 µM and 8.17 µM | 3.3 µM and 15 µM | 7.01 µM and 11.9 µM | 3.17 µM and 10.2 µM | – | – | 0.509 µM and 1.06 µM | – | 0.035 µM | 1.42 µM | 1.37 µM | 1.52 µM | – | – | –
CCCCCCCC(=O)SCC/C=C/[C@@H]1CC(=O)NCc2nc(cs2)C2=N[C@@](C)(CS2)C(=O)N[C@@H](C(C)C)C(=O)N1 | 38 µM | 1.8 µM | 0.0468 µM | – | > 100 µM | 11.1 µM | > 100 µM | > 50.5 µM | 0.977 µM | > 69 µM | 0.0153 µM | 0.0198 µM | – | 0.0335 µM | 0.0278 µM | 0.0118 µM | 0.0769 µM | 0.0233 µM | 0.0312 µM | 0.0183 µM
CC(=O)/C=C/C1=C(c2csc3ccccc23)c2ccccc2CC1 | > 100 µM | > 100 µM | 48.4 µM | 55.4 µM | – | 67.9 µM | > 100 µM | > 100 µM | 28.8 µM | > 100 µM | 15.4 µM | 16.9 µM | 21.7 µM | – | 14.2 µM | 33.8 µM | 31.8 µM | 13.4 µM | 22.4 µM | 35 µM
CC(=O)NC(CSC1=C2NC(=O)\C=C/C=C/C=C\C(C)C(O)CC(=O)/C(C)=C\CC(O)/C=C/C(C)C(O)C(C)C=C(C)C(=O)c3c(O)c(C)cc(c3C1=O)C2=O)C(=O)O (centres undefined) | > 100 µM | > 100 µM | > 100 µM | > 100 µM | > 100 µM | 71.8 µM | > 100 µM | – | > 100 µM | > 100 µM | – | – | – | – | – | – | – | – | – | –
Cc1nc2ccccn2c1NC(=O)NNC(=S)Nc1ccc(F)cc1 | > 100 µM | > 100 µM | > 100 µM | – | > 100 µM | > 100 µM | > 100 µM | > 100 µM | > 100 µM | > 100 µM | > 100 µM | > 100 µM | – | > 100 µM | > 100 µM | > 100 µM | > 100 µM | > 100 µM | > 100 µM | > 100 µM
O=C1C(=O)c2ccccc2C(O)=C1CCCc1ccc(C2CCCCC2)cc1 | 56.9 µM | – | 12 µM | 51 µM | 10.3 µM | > 100 µM | 42.2 µM | 49.6 µM | 13.9 µM | 91 µM | – | 1.15 µM | 3.55 µM | 2.78 µM | 7.69 µM | 17 µM | 3.8 µM | 1.52 µM | 5.17 µM | 8.59 µM
